Experimental data from patent publication US10858305B2, “Perillyl alcohol-3-bromopyruvate conjugate and methods of treating cancer” (NeOnc Technologies, Inc., priority 2016, dated 2020).
Entries after “also recorded” stand apart in the source; their conditions may differ. Read-outs that look alike come from different tables or passages of the source.

Legend:
[1] = system: HCT116, LN229, T98G, U251, MCF7, T47D, MDA-MB-231, MDA-MB-468, BTM-12, ME16C cells; assay: 24-hour MTT assay in 10 cell lines with MCT-1 levels (FIGS. 16A-16C); assay type: cell-based; conditions: Homo sapiens, read-out: IC50 (concentration of drug that kills 50% of the cell population)
Text: The following established human cell lines were used: (A) HCT116 colon carcinoma; (B) LN229, T98G, and U251 glioblastoma; (C) MCF7, MDA-MB-231, MDA-MB-468, BTM-12, and T47D breast carcinoma; and ME16C normal mammary gland epithelium cells (immortalized with telomerase). […] Bars with error bars represent ≥3 measurements, whereas graphs without error bars show the average of two independent measurements. The middle panels show MCT-1 protein levels for each cell line, as determined by Western blot with actin as the loading control.
Methylthiazoletetrazolium (MTT) assays were performed as described earlier.
Because it was reported that the cytotoxic effects of 3-BP in vitro depend on the presence of MCT-1, we began our study by characterizing MCT-1 expression levels along with cytotoxicity of 3-BP in the various tumor cell lines to be used in our study. We included one colon carcinoma cell line (HCT116), three glioblastoma cell lines (LN229, T98G, U251), four breast cancer cell lines (MCF7, T47D, MDA-MB-231, MDA-MB-468), one culture of primary breast cancer cells (BTM-12), and an established line of normal breast epithelial cells (ME16C). For all 10 cell lines, we established IC50 (concentration of drug that kills 50% of the cell population) by MTT assay, along with MCT-1 protein levels by Western blot analysis. As summarized in FIGS. 16A-16C, MCT-1 levels varied greatly in the different cells, and so did their IC50 values.

GAPDH = GAPDH (Homo sapiens, UniProt P04406); assay: GAPDH activity assay, drugs added to cell lysates (cell-free); assay type: biochemical; design: endogenous in cells; host or cells: MDA-MB-231 cell lysate; conditions: for inhibition of GAPDH enzyme activity: cell lysates incubated with drug for 1 hour; for effect of NAC or GSH on drug-induced inhibition of GAPDH activity: cell lysates, 1 mM NAC or GSH
Description: (A) HCT116 cells were treated with 40 μM 3-BP or NEO218 in the presence or absence of 1 mM NAC, 1 mM GSH, or 50 mM methyl-pyruvate (or sodium pyruvate, which produced similar outcomes). Cell viability was determined 24 hours later by MTT assay. (B) HCT116 cells were treated with 30 or 100 μM 3-BP or NEO218. After 30 minutes, cell lysates were prepared and analyzed for GAPDH activity. (C) Lysates from non-drug-treated MDA-MB-231 cells were mixed with 3-BP or NEO218 in the presence or absence of NAC or GSH at the concentrations mentioned in A. After 1 hour of incubation, GAPDH activity was determined. GAPDH activity in the absence of drug treatment was set at 100% (corresponding to 0.06 units/min×10^6 cells).
The capacity of NEO218 to inhibit the enzymatic function of GAPDH in a cell-free system was investigated. Cell lysates were incubated with NEO218 and 3-BP (individually) for 1 hour, and enzymatic activity of GAPDH (glyceraldehyde-3-phosphate dehydrogenase) was determined. Increasing concentrations of NEO218 and 3-BP were applied. Separately, 50 μM NEO218 and 3-BP, respectively, were applied together with 1 mM NAC or GSH. The enzymatic activity of GAPDH was determined with the use of a commercially available GAPDH activity assay kit.
Enzymatic activity of GAPDH in vitro was measured with the Colorimetric GAPDH Assay kit (ScienCell Research Laboratories, Carlsbad, Calif.). This assay is based on the oxidization of β-NADH to β-NAD in the presence of 3-phosphoglyceric acid, ATP and GAPDH. GAPDH activity is determined by assaying the rate of NADH oxidation, which is proportional to the reduction in absorbance at 340 nm over time (ΔA340 nm/min). One hundred thousand cells were lysed in 100 μL cell lysis buffer and incubated with the above components. Changes in absorbance over 10 minutes were calculated and normalized to untreated controls. Data are presented as percentage of controls. Two types of drug treatments were performed: in one approach, drugs were added to proliferating cells for 30 minutes under regular cell culture conditions; in the other approach, drugs were added to cell lysates for 1 hour at 4° C.

[2] = system: HCT116 3-BP survivors (MCT-1-negative) and parental cells; assay: Selection of 3-BP survivors from HCT116 cells and MTT chemosensitivity; assay type: cell-based, human
Description: (A) Immunostaining of HCT116 cells in the absence of any drug treatment (parental cells; left panel) and after 2-week recovery from highly toxic 48-hour treatment with 40 μM 3-BP (3-BP survivors; right panel). Arrows point to a few apparently MCT-1-negative cells among the otherwise MCT-1-positive parental population. Note preferential staining of the cell membrane in the positive cells, consistent with the known transmembrane location of MCT-1; no such staining could be detected in the 3-BP survivors. (B) Western blot analysis of MCT-1 expression levels two weeks after 48-hour treatment of cells with increasing concentrations of 3-BP. […] GAPDH was used as a loading control. (C) Chemosensitivity of 3-BP survivors were compared to parental cells in MTT assays. Both populations were treated with increasing concentrations of 3-BP or NEO218. Survival of untreated cells was set at 100% (n≥3±SE).
Upon closer inspection of individual cells by immunohistochemistry, we detected a small number of apparently MCT-1-negative cells among the otherwise mostly MCT-1-positive population (FIG. 20A). This aspect was investigated further by treating HCT116 cells with 40 μM, representing a concentration that reduces apparent viability by 75% in MTT assays (FIG. 17A) and blocks colony formation by 99% in CFAs. […] These cells, which we called 3-BP survivors, were further analyzed. Intriguingly, no MCT-1 expression could be detected in these cells, neither by immunohistochemistry (FIG. 20A) nor by Western blot (FIG. 20B). […] Intriguingly, NEO218 had no such effect.

HCT116 cells = assay: cells; conditions: Homo sapiens; for IC50: HCT-116, 24 h, read-out: half-maximal effect, MTT assay
Description: (A) MTT assay was performed after 24 hours. Viability of untreated cells was set at 100% (n=3).
Methylthiazoletetrazolium (MTT) assays were performed as described earlier [38]. Briefly, cells were seeded into 96-well plates at 2.0 to 8.0×10^3 cells per well and exposed to drug treatment (or solvent alone) for 24 or 48 hours. In individual experiments, each treatment condition was set up in triplicate, and each experiment was repeated several times independently.

Chain of GAPDH (P04406 whole entry): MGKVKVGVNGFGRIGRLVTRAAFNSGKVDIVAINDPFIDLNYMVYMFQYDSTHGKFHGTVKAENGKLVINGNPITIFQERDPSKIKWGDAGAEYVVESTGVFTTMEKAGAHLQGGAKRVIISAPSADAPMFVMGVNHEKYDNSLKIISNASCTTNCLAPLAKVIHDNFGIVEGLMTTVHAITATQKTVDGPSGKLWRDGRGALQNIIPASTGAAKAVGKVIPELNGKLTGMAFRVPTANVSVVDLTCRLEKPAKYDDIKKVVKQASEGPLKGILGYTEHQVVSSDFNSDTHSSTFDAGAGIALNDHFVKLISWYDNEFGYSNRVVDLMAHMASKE

SMILES | IC50 ([1]; all 10 cell lines, irrespective of MCT-1 expression) [µM] | inhibition of GAPDH enzyme activity (GAPDH) | effect of NAC or GSH on drug-induced inhibition of GAPDH activity (GAPDH) | sensitivity of 3-BP survivors ([2]; 3-BP survivors of HCT116, MTT) | surviving cells after treatment ([2]; parental HCT116, 40 μM) | IC50 (HCT116 cells) [µM] | IC50 ([1]; 24 h, cells with high MCT-1 levels (HCT116, U251, ME16C, MDA-MB-468), 24 hours) [µM] | IC50 ([1]; 24 h, cells with lesser MCT-1 levels, 24 hours) [µM] | IC50 ([2]; Homo sapiens, HCT-116, read-out: IC50 (MTT)) [µM] | cytotoxicity at 40 µM (HCT116 cells; HCT-116, read-out: reduction of apparent viability in MTT assay) [%]
C=C(C)[C@@H]1CC=C(COC(=O)C(=O)CBr)CC1 [NEO218, 3-bromo-2-oxo-propionic acid 4-isopropenyl-cyclohex-1-enylmethyl ester] | 15 to 25 | potent inhibition of GAPDH enzyme activity; also recorded: potently decreased enzymatic GAPDH activity | effectively prevented the drug-induced inhibition of GAPDH activity; also recorded: completely prevented | retained their high sensitivity toward NEO218 | did not leave any surviving cells | ~18 | – | – | – | –
O=C(O)C(=O)CBr [3-BP, 3-bromopyruvate] | – | potent inhibition of GAPDH enzyme activity; also recorded: potently decreased enzymatic GAPDH activity | effectively prevented the drug-induced inhibition of GAPDH activity; also recorded: completely prevented | – | – | ~18 | 15 to 60 | 150 to 300 | > 100 | 75
